“And” between values parts separate entries of the source, which are not always exact repeats. Equal entries are not always repeated. Toxic doses and inconclusive results are not listed. No stated cut-off is given here; in the data, active means T/C of 150% or more; inactive means T/C below 125%.
Tested on: L1210 leukemia ip in BDF1 mice, survival T/C
Assay: NCI In Vivo Anticancer Drug Screen. Data for tumor model L1210 Leukemia (intraperitoneal) in B6D2F1 (BDF1) mice
Conditions: endpoint: mean survival time, higher = longer survival
Procedure, shortened: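 In this screen, tumor-bearing mice given compound are compared to those given vehicle, and their survival values are reported as a treated-to-control quotient.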

[1] = dose: 100.0 mg/kg/injection, schedule: Q01DX009 (ip), vehicle: saline with Tween-80
[2] = dose: 100.0 mg/kg/injection, schedule: Q04DX003 (ip), vehicle: saline with Tween-80
[3] = dose: 200.0 mg/kg/injection, schedule: Q01DX009 (ip), vehicle: saline with Tween-80
[4] = dose: 200.0 mg/kg/injection, schedule: Q04DX003 (ip), vehicle: saline with Tween-80
[5] = dose: 400.0 mg/kg/injection, schedule: Q01DX009 (ip), vehicle: saline with Tween-80
[6] = dose: 100.0 mg/kg/injection, schedule: Q04DX002 (ip), vehicle: saline with Tween-80
[7] = dose: 200.0 mg/kg/injection, schedule: Q04DX002 (ip), vehicle: saline with Tween-80
[8] = dose: 400.0 mg/kg/injection, schedule: Q04DX002 (ip), vehicle: saline with Tween-80
[9] = dose: 100.0 mg/kg/injection, schedule: Q01DX009 (ip), vehicle: Klucel (hydroxypropylcellulose) (HPC)
[10] = dose: 100.0 mg/kg/injection, schedule: Q04DX003 (ip), vehicle: Klucel (hydroxypropylcellulose) (HPC)
[11] = dose: 200.0 mg/kg/injection, schedule: Q01DX009 (ip), vehicle: Klucel (hydroxypropylcellulose) (HPC)
[12] = dose: 200.0 mg/kg/injection, schedule: Q04DX003 (ip), vehicle: Klucel (hydroxypropylcellulose) (HPC)
[13] = dose: 400.0 mg/kg/injection, schedule: Q01DX009 (ip), vehicle: Klucel (hydroxypropylcellulose) (HPC)
[14] = dose: 400.0 mg/kg/injection, schedule: Q04DX003 (ip), vehicle: Klucel (hydroxypropylcellulose) (HPC)

Measured: T/C

CCCCCCCCCCCC[n+]1ccc2ccccc2c1
inactive: dose: 0.05 mg/kg/injection, schedule: Q01DX001 (ip), vehicle: saline 97 % of control | dose: 0.1 mg/kg/injection, schedule: Q01DX001 (ip), vehicle: saline 105 % of control | dose: 0.2 mg/kg/injection, schedule: Q01DX001 (ip), vehicle: saline 100 % of control | dose: 0.4 mg/kg/injection, schedule: Q01DX001 (ip), vehicle: saline 102 % of control | dose: 0.5 mg/kg/injection, schedule: Q01DX001 (ip), vehicle: saline 106 % of control | dose: 0.8 mg/kg/injection, schedule: Q01DX001 (ip), vehicle: saline 100 % of control | dose: 1.0 mg/kg/injection, schedule: Q01DX001 (ip), vehicle: saline 104 % of control | dose: 2.0 mg/kg/injection, schedule: Q01DX001 (ip), vehicle: carboxymethylcellulose (CMC) 109 % of control | dose: 2.0 mg/kg/injection, schedule: Q01DX001 (ip), vehicle: saline 104 % of control | dose: 4.0 mg/kg/injection, schedule: Q01DX001 (ip), vehicle: carboxymethylcellulose (CMC) 96 % of control and 97 % of control | dose: 4.0 mg/kg/injection, schedule: Q01DX001 (ip), vehicle: saline 103 % of control | dose: 8.0 mg/kg/injection, schedule: Q01DX001 (ip), vehicle: carboxymethylcellulose (CMC) 90 % of control and 91 % of control | dose: 8.0 mg/kg/injection, schedule: Q01DX001 (ip), vehicle: saline 96 % of control | dose: 16.0 mg/kg/injection, schedule: Q01DX001 (ip), vehicle: carboxymethylcellulose (CMC) 102 % of control | dose: 8.0 micrograms/kg/injection, schedule: Q01DX015 (ip), vehicle: saline 88 % of control | dose: 16.0 micrograms/kg/injection, schedule: Q01DX015 (ip), vehicle: saline 92 % of control | dose: 32.0 micrograms/kg/injection, schedule: Q01DX015 (ip), vehicle: saline 96 % of control | dose: 64.0 micrograms/kg/injection, schedule: Q01DX015 (ip), vehicle: saline 91 % of control

NC(=O)c1nc2c([nH]c1=O)CCCC2
inactive: [1] 94 % of control | [2] 93 % of control | [3] 94 % of control | [4] 94 % of control | [5] 94 % of control | dose: 400.0 mg/kg/injection, schedule: Q04DX003 (ip), vehicle: saline with Tween-80 94 % of control

CC(=O)Nc1ccc(/C=N\NC(=S)Nc2ccc3cn[nH]c3c2)cc1
inactive: dose: 50.0 mg/kg/injection, schedule: Q01DX001 (ip), vehicle: carboxymethylcellulose (CMC) 100 % of control | dose: 100.0 mg/kg/injection, schedule: Q01DX001 (ip), vehicle: carboxymethylcellulose (CMC) 97 % of control | dose: 200.0 mg/kg/injection, schedule: Q01DX001 (ip), vehicle: carboxymethylcellulose (CMC) 103 % of control | dose: 400.0 mg/kg/injection, schedule: Q01DX001 (ip), vehicle: carboxymethylcellulose (CMC) 97 % of control

C=COc1c(Cl)cc(Cl)cc1Cl
inactive: [1] 93 % of control and 101 % of control | [6] 105 % of control and 107 % of control | [3] 101 % of control and 102 % of control | [7] 97 % of control and 98 % of control | [5] 100 % of control and 104 % of control | [8] 94 % of control and 101 % of control

CCCOCCOCCOC(C)Oc1ccc(OC)cc1 (configuration not stated)
inactive: dose: 100.0 mg/kg/injection, schedule: Q04DX002 (ip), vehicle: saline 92 % of control | dose: 200.0 mg/kg/injection, schedule: Q04DX002 (ip), vehicle: saline 101 % of control

CCOc1cc([N+](=O)[O-])c(OCC)cc1C#N
inactive: dose: 5.0 mg/kg/injection, schedule: Q01DX001 (ip), vehicle: other 106 % of control | dose: 10.0 mg/kg/injection, schedule: Q01DX001 (ip), vehicle: other 90 % of control | dose: 20.0 mg/kg/injection, schedule: Q01DX001 (ip), vehicle: other 93 % of control

CN=C(N)Nc1ccc(C(=O)Oc2ccc([N+](=O)[O-])cc2)cc1
inactive: dose: 25.0 mg/kg/injection, schedule: Q01DX009 (ip), vehicle: water 112 % of control | dose: 50.0 mg/kg/injection, schedule: Q01DX009 (ip), vehicle: water 102 % of control

N=C(N)Sc1cccc[n+]1[O-]
inactive: dose: 100.0 mg/kg/injection, schedule: Q01DX001 (ip), vehicle: saline 105 % of control | dose: 200.0 mg/kg/injection, schedule: Q01DX001 (ip), vehicle: saline 111 % of control

O=[N+]([O-])c1cc(Cl)c(O)c([N+](=O)[O-])c1O
inactive: dose: 75.0 mg/kg/injection, schedule: Q01DX001 (ip), vehicle: carboxymethylcellulose (CMC) 103 % of control

CC1=CC(C)(C)Nc2ccc(Nc3ccccc3)cc21
inactive: dose: 75.0 mg/kg/injection, schedule: Q01DX001 (ip), vehicle: saline 101 % of control | dose: 150.0 mg/kg/injection, schedule: Q01DX001 (ip), vehicle: saline 96 % of control

COc1ccc(NC(=S)NC2CCCCC2)cc1
inactive: dose: 100.0 mg/kg/injection, schedule: Q04DX003 (ip), vehicle: other 94 % of control | dose: 200.0 mg/kg/injection, schedule: Q04DX003 (ip), vehicle: other 88 % of control | dose: 400.0 mg/kg/injection, schedule: Q04DX003 (ip), vehicle: other 90 % of control

CCCCCCCCCCCCCCCC(=O)OC
inactive: [9] 105 % of control | [10] 98 % of control | [11] 101 % of control | [12] 93 % of control | [13] 97 % of control | [14] 98 % of control

C[N+]1(C)CCOCC1
inactive: dose: 10.0 mg/kg/injection, schedule: Q01DX001 (ip), vehicle: saline 99 % of control | dose: 20.0 mg/kg/injection, schedule: Q01DX001 (ip), vehicle: saline 100 % of control | dose: 40.0 mg/kg/injection, schedule: Q01DX001 (ip), vehicle: saline 96 % of control

C1CSP(SCCSP2SCCS2)S1
inactive: dose: 25.0 mg/kg/injection, schedule: Q01DX009 (ip), vehicle: carboxymethylcellulose (CMC) 87 % of control and 88 % of control | dose: 25.0 mg/kg/injection, schedule: Q04DX002 (ip), vehicle: carboxymethylcellulose (CMC) 95 % of control and 90 % of control | dose: 50.0 mg/kg/injection, schedule: Q01DX009 (ip), vehicle: carboxymethylcellulose (CMC) 95 % of control | dose: 50.0 mg/kg/injection, schedule: Q04DX002 (ip), vehicle: carboxymethylcellulose (CMC) 97 % of control and 90 % of control | dose: 100.0 mg/kg/injection, schedule: Q01DX009 (ip), vehicle: carboxymethylcellulose (CMC) 95 % of control and 91 % of control | dose: 200.0 mg/kg/injection, schedule: Q04DX002 (ip), vehicle: carboxymethylcellulose (CMC) 94 % of control

CCOc1ccccc1C=C(C#N)C#N
inactive: [6] 100 % of control

CCOP(=O)(OCC)C(c1ccccc1)(c1ccccc1)c1ccccc1
inactive: [6] 90 % of control | [7] 90 % of control | [8] 90 % of control

BrC1(Br)C2C3C=CC4C(C=C3)C4C21 (configuration not stated)
inactive: dose: 50.0 mg/kg/injection, schedule: Q01DX001 (ip), vehicle: Klucel (hydroxypropylcellulose) (HPC) 105 % of control | dose: 100.0 mg/kg/injection, schedule: Q01DX001 (ip), vehicle: Klucel (hydroxypropylcellulose) (HPC) 103 % of control | dose: 200.0 mg/kg/injection, schedule: Q01DX001 (ip), vehicle: Klucel (hydroxypropylcellulose) (HPC) 108 % of control

CCCCCCCCc1ccc(C(C)=O)cc1
inactive: [9] 94 % of control | [10] 102 % of control | [11] 96 % of control | [12] 100 % of control | [13] 86 % of control | [14] 107 % of control

Cc1ccc(S(=O)(=O)OC[C@H]2CC=CC[C@H]2COS(=O)(=O)c2ccc(C)cc2)cc1
inactive: dose: 75.0 mg/kg/injection, schedule: Q01DX009 (ip), vehicle: saline with Tween-80 91 % of control | dose: 100.0 mg/kg/injection, schedule: Q01DX009 (ip), vehicle: DMSO 95 % of control | dose: 100.0 mg/kg/injection, schedule: Q04DX003 (ip), vehicle: DMSO 86 % of control | [2] 88 % of control | dose: 150.0 mg/kg/injection, schedule: Q01DX009 (ip), vehicle: saline with Tween-80 107 % of control | dose: 200.0 mg/kg/injection, schedule: Q01DX009 (ip), vehicle: DMSO 101 % of control | dose: 200.0 mg/kg/injection, schedule: Q04DX003 (ip), vehicle: DMSO 86 % of control | [4] 86 % of control | dose: 300.0 mg/kg/injection, schedule: Q01DX009 (ip), vehicle: saline with Tween-80 101 % of control | dose: 400.0 mg/kg/injection, schedule: Q04DX003 (ip), vehicle: DMSO 88 % of control
